From patent US8557516B2, “AKT tyrosine 176 phosphorylation cancer biomarker” (H. Lee Moffitt Cancer Center and Research Institute, Inc., priority 2009, dated 2013)

Tested on: AKT Tyr176-phosphorylation
Experiment: Cell fractionation and immunoblotting of pTyr176-AKT in MCF-7 cells
Type: cell-based, human
Details: MCF-7 cells serum starved 24 h; insulin 50 ng/ml or heregulin 30 ng/ml
Experimental: FIG. 27 is a blot showing Tyr176-phosphorylation regulates AKT plasma membrane localization. MCF-7 cells were serum starved (24 h) and treated with insulin (50 ng/ml) or for indicated times. Cell lysates were fractionated and IB with the indicated antibodies. Input panels pAck1 (Tyr), pIR(Tyr) and pHER-2(Tyr) represents IP with respective antibodies followed by IB with pTyr antibodies.
FIG. 28 is a blot showing Tyr176-phosphorylation regulates AKT plasma membrane localization. MCF-7 cells were serum starved (24 h) and treated (C) heregulin (30 ng/ml) for indicated times. Cell lysates were fractionated and IB with the indicated antibodies. Input panels pAck1 (Tyr), pIR(Tyr) and pHER-2(Tyr) represents IP with respective antibodies followed by IB with pTyr antibodies.
FIG. 29 is a blot showing Tyr176-phosphorylation regulates AKT plasma membrane localization. MCF7 cells were transfected with control or Ack1-specific siRNAs (40 nM) for 48 h and treated with heregulin for 40 mins. Cell lysates were fractionated and IB with indicated antibodies.
FIG. 34 is a blot showing Tyr176-phosphorylation of AKT is PI3K-independent. MCF-7 cells were pretreated with LY294002 (10 μM, 1 h) followed by heregulin for 40 mins. Cell lysates were fractionated and membrane fraction was subjected to IB with indicated antibodies.
Cell fractionation, immunoprecipitations and kinase assay. […]

Substance	time of optimal AKT Tyr-176 phosphorylation and plasma membrane accumulation [min]
heregulin	40
insulin: growth factor ligand used to stimulate cells	30
